Reference: the CheMixHub viscosity set

Test: xn = mol fraction of the nth substance listed

COCCOCCOCCO + CCC(C)O
viscosity [mPa·s], 101 kPa
Details | x1 = 0.0039 | x1 = 0.0079 | x1 = 0.0151 | x1 = 0.0318 | x1 = 0.0511 | x1 = 0.08 | x1 = 0.1038
298.15 K | 3.101 | 3.074 | 3.046 | 2.988 | 2.947 | 2.893 | 2.942
308.15 K | 2.163 | 2.161 | 2.148 | 2.133 | 2.132 | 2.128 | 2.186
318.15 K | 1.565 | 1.562 | 1.564 | 1.569 | 1.577 | 1.611 | 1.674

Nc1ccccc1 + CCC(C)O
303 K, 101.33 kPa
Details | viscosity [mPa·s]
x1 = 0.1 | 2.052
x1 = 0.2 | 1.978
x1 = 0.3 | 1.954
x1 = 0.4 | 1.944
x1 = 0.5 | 2.076
x1 = 0.6 | 2.156
x1 = 0.8 | 2.504
x1 = 0.9 | 2.835

CCNCC + CCCC(C)O
viscosity [mPa·s], 100 kPa
Details | 293.15 K | 298.15 K | 303.15 K | 308.15 K | 313.15 K | 318.15 K | 323.15 K
x1 = 0.0218 | 3.75 | 3.12 | 2.6 | 2.18 | 1.85 | 1.59 | 1.37
x1 = 0.081 | 3.2 | 2.7 | 2.28 | 1.92 | 1.66 | 1.44 | 1.25
x1 = 0.16 | 2.57 | 2.207 | 1.9 | 1.62 | 1.42 | 1.25 | 1.1
x1 = 0.2399 | 2.04 | 1.78 | 1.555 | 1.35 | 1.204 | 1.07 | 0.96
x1 = 0.3499 | 1.5 | 1.33 | 1.18 | 1.05 | 0.945 | 0.858 | 0.78
x1 = 0.44 | 1.16 | 1.04 | 0.94 | 0.85 | 0.778 | 0.71 | 0.65
x1 = 0.56 | 0.84 | 0.76 | 0.7 | 0.644 | 0.592 | 0.544 | 0.494
x1 = 0.6501 | 0.68 | 0.629 | 0.577 | 0.53 | 0.489 | 0.446 | 0.41
x1 = 0.74 | 0.552 | 0.506 | 0.466 | 0.435 | 0.4 | 0.367 | 0.34
x1 = 0.8497 | 0.45 | 0.416 | 0.387 | 0.36 | 0.335 | 0.311 | 0.285
x1 = 0.9397 | 0.368 | 0.346 | 0.325 | 0.304 | 0.285 | 0.268 | 0.25
x2 = 0.0189 | 0.332 | 0.316 | 0.3 | 0.283 | 0.268 | 0.254 | 0.24

COCCOCCOCCO + CCCC(C)O
viscosity [mPa·s], 101 kPa
Details | x1 = 0.0047 | x1 = 0.0177 | x1 = 0.0299 | x1 = 0.0546 | x1 = 0.0827 | x1 = 0.1089
298.15 K | 3.349 | 3.306 | 3.258 | 3.191 | 3.143 | 3.122
308.15 K | 2.319 | 2.316 | 2.3 | 2.288 | 2.285 | 2.295
318.15 K | 1.672 | 1.676 | 1.684 | 1.695 | 1.712 | 1.732

CC(C)C=O + CCCC=O
viscosity [mPa·s], 100 kPa
Details | 293.5 K | 293.51 K | 317.08 K | 318.11 K
x1 = 0.12 | – | 23.21 | 17.25 | –
x1 = 0.2 | 2.307 | – | – | 1.698

Cc1ccc(NC(=O)NCCCCCCCCCCC(C)C)cc1NC(=O)NCCCCCCCCCCC(C)C + CCCCC
Details | viscosity [mPa·s]
293.15 K, 100 kPa, x1 = 0.0001 | 204

CC(C)(C)O + CCCCCC
303.2 K, 101.33 kPa
Details | viscosity [mPa·s]
x2 = 0.05 | 2.298
x2 = 0.1 | 1.677
x2 = 0.15 | 1.306
x2 = 0.2 | 1.052
x2 = 0.3 | 0.749
x2 = 0.4 | 0.568
x2 = 0.5 | 0.465
x2 = 0.6 | 0.41
x2 = 0.7 | 0.361
x2 = 0.8 | 0.319
x2 = 0.85 | 0.302
x2 = 0.9 | 0.289
x2 = 0.95 | 0.281

CCCCOC(=O)c1ccccc1 + CCCCCC
101 kPa
Details | viscosity [mPa·s]
298.15 K, x2 = 0.0788 | 2.272
298.15 K, x2 = 0.1269 | 2.042
298.15 K, x2 = 0.1801 | 1.81
298.15 K, x2 = 0.2539 | 1.536
298.15 K, x2 = 0.302 | 1.377
298.15 K, x2 = 0.3485 | 1.244
298.15 K, x2 = 0.4084 | 1.088
298.15 K, x2 = 0.4955 | 0.896
298.15 K, x2 = 0.5498 | 0.796
298.15 K, x2 = 0.6402 | 0.654
298.15 K, x2 = 0.6861 | 0.594
298.15 K, x2 = 0.7746 | 0.495
298.15 K, x2 = 0.8136 | 0.458
298.15 K, x2 = 0.8494 | 0.427
298.15 K, x2 = 0.8868 | 0.399
298.15 K, x2 = 0.9265 | 0.37
298.15 K, x2 = 0.961 | 0.348
308.15 K, x2 = 0.0668 | 1.923
308.15 K, x2 = 0.1277 | 1.7
308.15 K, x2 = 0.1875 | 1.5
308.15 K, x2 = 0.2458 | 1.331
308.15 K, x2 = 0.2926 | 1.211
308.15 K, x2 = 0.3554 | 1.063
308.15 K, x2 = 0.4013 | 0.966
308.15 K, x2 = 0.4549 | 0.863
308.15 K, x2 = 0.5013 | 0.785
308.15 K, x2 = 0.5515 | 0.707
308.15 K, x2 = 0.5967 | 0.644
308.15 K, x2 = 0.6407 | 0.59
308.15 K, x2 = 0.6896 | 0.536
308.15 K, x2 = 0.728 | 0.497
308.15 K, x2 = 0.7727 | 0.457
308.15 K, x2 = 0.8106 | 0.427
308.15 K, x2 = 0.8512 | 0.396
308.15 K, x2 = 0.8888 | 0.37
308.15 K, x2 = 0.9482 | 0.337
318.15 K, x2 = 0.0337 | 1.707
318.15 K, x2 = 0.1077 | 1.48
318.15 K, x2 = 0.1661 | 1.326
318.15 K, x2 = 0.231 | 1.166
318.15 K, x2 = 0.2845 | 1.05
318.15 K, x2 = 0.3438 | 0.934
318.15 K, x2 = 0.3951 | 0.846
318.15 K, x2 = 0.4512 | 0.757
318.15 K, x2 = 0.4998 | 0.691
318.15 K, x2 = 0.5513 | 0.624
318.15 K, x2 = 0.5518 | 0.625
318.15 K, x2 = 0.646 | 0.523
318.15 K, x2 = 0.6884 | 0.486
318.15 K, x2 = 0.7317 | 0.447
318.15 K, x2 = 0.7749 | 0.412
318.15 K, x2 = 0.8206 | 0.383
318.15 K, x2 = 0.8608 | 0.36
318.15 K, x2 = 0.9115 | 0.327
318.15 K, x2 = 0.9342 | 0.317

CCNCC + CCCCCC
viscosity [mPa·s], 101 kPa
Details | x2 = 0.0897 | x2 = 0.1836 | x2 = 0.2802 | x2 = 0.3738 | x2 = 0.474 | x2 = 0.5744 | x2 = 0.6849 | x2 = 0.7818 | x2 = 0.8954
298.15 K | 0.284 | 0.281 | 0.28 | 0.278 | 0.278 | 0.279 | 0.281 | 0.283 | 0.287
313.15 K | 0.254 | 0.251 | 0.25 | 0.249 | 0.25 | 0.25 | 0.251 | 0.254 | 0.257

CCOC(=O)CCCBr + CCCCCC
303.15 K, 101 kPa
Details | viscosity [mPa·s]
x1 = 0.2012 | 0.4062
x1 = 0.3949 | 0.5871
x1 = 0.4988 | 0.7248
x1 = 0.6008 | 0.8853
x1 = 0.7973 | 1.274
